The results in this text go back to patent US20110160056A1, “Triazole compounds, the use thereof and preparations containing these compounds” (BASF SE, priority 2008, published 2011).

One experiment has as its system Botrytis cinerea. The experiment can be described thus: Activity against the gray mold pathogen in the microtiter test. The class given is cell-based. Particulars: 168 h, 31 ppm active compound, absorption at 405 nm on day 7 after inoculation, relative to active compound-free control.
The subject of another experiment is Septoria tritici. In words: Activity against the Septoria leaf blotch pathogen in the microtiter test. The class given is cell-based. Conditions: Zymoseptoria tritici, 168 h; 31 ppm active compound; absorption at 405 nm on day 7 after inoculation; relative to active compound-free control (100%). On the procedure:
The stock solution was pipetted into a microtiter plate (MTP) and diluted with water to the stated active compound concentration. An aqueous malt-based spore suspension of Septoria tritici was then added. The plates were placed in a water vapor-saturated chamber at temperatures of 18° C. Using an absorption photometer, the MTPs were measured at 405 nm on day 7 after the inoculation. The measured parameters were compared to the growth of the active compound-free control variant (100%) and the fungus- and active compound-free blank value to determine the relative growth in % of the pathogens in the individual active compounds.

For the compound `CC(C)(C)C(O)C(COc1cccc(C(F)(F)F)c1F)n1cncn1` (stereo not drawn) [I.45], the results for the relative pathogen growth at 31 ppm with Botrytis cinerea and in the experiment on Septoria tritici were ≤ 13% and ≤ 14%, respectively.

Regarding `CC(C)(C)C(O)C(CCCCOc1cc(Cl)ccc1F)n1cncn1` (stereo not drawn) [I.12b, 8-(5-chloro-2-fluorophenoxy)-2,2-dimethyl-4-[1,2,4]triazol-1-yloctan-3-ol], the values for the relative pathogen growth at 31 ppm in the experiment with Botrytis cinerea and in the experiment on Septoria tritici were ≤ 13% and ≤ 14%, respectively. The matching figures for `Cc1cc(F)ccc1OCC(C(O)C(C)(C)C)n1cncn1` (stereo not drawn) [I.8]: ≤ 13% and ≤ 14%. Consider `CC(C)(C)C(O)C(COc1ccc(F)c(F)c1F)n1cncn1` (stereo not drawn) [I.40], for which the relative pathogen growth at 31 ppm in the experiment on Botrytis cinerea was ≤ 13%; in the experiment with Septoria tritici it was ≤ 14%. On to `CC(C)(C)C(O)C(COc1ccc(Cl)cc1Br)n1cncn1` (stereo not drawn) [I.32], for which, in the experiment with Botrytis cinerea, the relative pathogen growth at 31 ppm is ≤ 13%.
